Data published in paper PMC6311682, “Design, Synthesis, and Biological Evaluation of 2-Nitroimidazopyrazin-one/-es with Antitubercular and Antiparasitic Activity” (Journal of Medicinal Chemistry, 2018).
In brackets after ≈: the same amount, converted by molar mass. Like-named read-outs stand apart in the source and are kept apart here.

Experiments:
HepG2 cells = test system: HepG2 cells; design: method as in Jarrad et al. 2; settings: ATCC HB-8065; ref Jarrad et al. 2; read-out: cytotoxicity CC50 HepG2; cited from earlier work
M. tuberculosis (H37Rv) [1] = experiment: M. tuberculosis H37Rv resazurin reduction microplate MIC assay, normoxic conditions; type: cell-based; settings: Mycobacterium tuberculosis, normoxia, read-out: antibacterial MIC M. tuberculosis normoxia
HEK293 cells = test system: HEK293 cells; design: method as in Jarrad et al. 2; settings: ATCC CRL-1573; ref Jarrad et al. 2; read-out: cytotoxicity CC50 HEK 293; cited from earlier work
M. tuberculosis (H37Rv) [2] = experiment: M. tuberculosis H37Rv resazurin reduction microplate MIC assay, hypoxic conditions (0.1% oxygen); type: cell-based, Mycobacterium tuberculosis; settings: H37Rv, hypoxia (0.1% oxygen); for MIC: Mycobacterium tuberculosis, read-out: antibacterial MIC M. tuberculosis hypoxia
[3] = test system: ESKAPE pathogens S. aureus (ATCC 43300), E. coli (ATCC 25922), K. pneumoniae (ATCC 700603), A. baumannii (ATCC 19606), P. aeruginosa (ATCC 27853); experiment: Broth microdilution MIC assay, ESKAPE pathogens; type: cell-based
[4] = Broth microdilution MIC assay, ESKAPE pathogens; type: cell-based; settings: S. aureus, E. coli, K. pneumoniae, A. baumannii, P. aeruginosa; read-out: antibacterial MIC ESKAPE
[5] = test system: L. donovani MHOM/IN/80/DD8 (ATCC50212); experiment: L. donovani DD8 intracellular (THP-1) amastigote assay; type: cell-based; settings: Leishmania donovani
[6] = Kinetic solubility determination by LC-UV; settings: room temperature, 1% DMSO
[7] = Caco-2 monolayer bidirectional permeability assay; settings: human, Caco-2, pH 7.4
[8] = Plasma protein binding, ultrafiltration method; type: in vitro ADME; settings: human plasma, % bound; for fraction unbound at 0.5 h, 5 µM: read-out: PPB (%) (converted)
[9] = test system: C. difficile (630, ATCC BAA-1382); experiment: Broth microdilution MIC assay, C. difficile; type: cell-based, Clostridium difficile; settings: 630 ATCC BAA-1382, median MIC; for MIC: Clostridioides difficile, ATCCBAA1382, read-out: antibacterial MIC C. difficile
[10] = test system: E. histolytica (HM1:IMSS); experiment: ATP-bioluminescence cell growth and survival assay, E. histolytica trophozoites; type: cell-based; settings: Entamoeba histolytica
G. lamblia (WB line) = experiment: ATP-bioluminescence cell growth and survival assay, G. lamblia trophozoites; type: cell-based; settings: Giardia duodenalis
[11] = test system: T. b. brucei (strain 427, BS427); experiment: 384-well resazurin viability assay, T. b. brucei bloodstream parasites; type: cell-based; settings: Trypanosoma brucei, BS427, n = 2
[12] = Mammalian cytotoxicity assay (resazurin), HepG2; settings: human, HepG2 cells
[13] = Mammalian cytotoxicity assay (resazurin), HEK293; settings: human, HEK293 cells
[14] = test system: C. albicans (ATCC 90028) and C. neoformans (H99, ATCC 208821); experiment: Broth microdilution MIC assay, fungi; type: cell-based; settings: for MIC: Candida albicans, read-out: antifungal MIC
M. tuberculosis = settings: cited from earlier work
in vitro = settings: human
[15] = read-out: antiparasitic IC50 L. donovani
[16] = read-out: antiparasitic pIC50 ± SE L. donovani (converted)
[17] = PBS, pH 7.4, Solubility µM (PBS), PBS pH 7.4, 24 h
[18] = water, Solubility µM (H2O), 24 h
[19] = read-out: antiparasitic IC50 E. histolytica
[20] = read-out: antiparasitic pIC50 ± SE E. histolytica (converted)
[21] = read-out: antiparasitic IC50 G. lamblia
[22] = read-out: antiparasitic IC50 T. b. brucei
[23] = read-out: antiparasitic pIC50 ± SE T. b. brucei (converted)
[24] = read-out: antiparasitic pIC50 ± SE G. lamblia (converted)

| Compound | MIC (M. tuberculosis (H37Rv) [1]) [µg/mL] | antibacterial MIC ESKAPE [3] [µg/mL] | MIC [4] [µg/mL] | IC50 [5, 15] [µM] | IC50 [5, 16] [µM] | solubility at 24 h [6, 17] [µM] | solubility at 24 h [6, 18] [µM] | MIC [9] [µg/mL] | CC50 at 24 h [12] [µM] | CC50 at 24 h [13] [µM] | MIC [14] [µg/mL] | other results |
| --- | --- | --- | --- | --- | --- | --- | --- | --- | --- | --- | --- | --- |
| NC(=O)c1ncc([N+](=O)[O-])[nH]1 [16a] | > 32 | – | – | – | – | – | – | – | – | – | – | CC50 (HepG2 cells): > 100 µM; CC50 (HEK293 cells): > 100 µM; MIC (M. tuberculosis (H37Rv) [2]): > 32 µg/mL |
| O=c1c2nc([N+](=O)[O-])cn2ccn1Cc1ccc(OC(F)(F)F)cc1 [17c, 2-Nitro-7-(4-(trifluoromethoxy)benzyl)imidazo[1,2-a]pyrazin-8(7H)-one] | – | > 32 | > 32 | > 80 | > 79.4 | < 5 | < 5 | – | – | – | – | Papp A→B at 2 h, 2 µM [7]: 25 ×10⁻⁶ cm/s; Papp A→B at 2 h, 2 μM [7]: > 20 ×10⁻⁶ cm/s; Papp B→A at 2 h, 2 µM [7]: 22 ×10⁻⁶ cm/s; fraction unbound at 0.5 h, 5 µM [8]: 0.02; antibacterial MIC M. tuberculosis hypoxia (M. tuberculosis (H37Rv) [2]): 1.0 to 4.0 µg/mL |
| O=c1c2nc([N+](=O)[O-])cn2ccn1Cc1ccc(F)cc1 [17e, 7-(4-Fluorobenzyl)-2-nitroimidazo[1,2-a]pyrazin-8(7H)-one] | – | >32 | > 32 | > 80 | > 79.4 | < 5 | < 5 | – | – | – | – | fraction unbound at 0.5 h, 5 µM [8]: 0.18 |
| O=c1c2nc([N+](=O)[O-])cn2ccn1Cc1cccc(OC(F)(F)F)c1 [17f, 2-Nitro-7-(3-(trifluoromethoxy)benzyl)imidazo[1,2-a]pyrazin-8(7H)-one] | – | > 32 | > 32 | > 80 | > 79.4 | < 5 | < 5 | – | – | – | – | Papp A→B at 2 h, 2 µM [7]: 24 ×10⁻⁶ cm/s; Papp A→B at 2 h, 2 μM [7]: > 20 ×10⁻⁶ cm/s; Papp B→A at 2 h, 2 µM [7]: 24 ×10⁻⁶ cm/s; fraction unbound at 0.5 h, 5 µM [8]: 0.01 |
| O=c1c2nc([N+](=O)[O-])cn2ccn1CCc1ccc(OC(F)(F)F)cc1 [17m, 2-Nitro-7-(4-(trifluoromethoxy)phenethyl)imidazo[1,2-a]pyrazin-8(7H)-one] | 8 (≈ 21.7 µM) | >32 | > 32 | > 80 | > 79.4 | < 5 | < 5 | 64 (≈ 174 µM) | – | – | – | IC50 [10, 19]: > 50 µM; IC50 [10, 20]: > 50.1 µM; IC50 (G. lamblia (WB line); [21]): 1.6 to 3.2 µM |
| Cc1ccc(CCn2ccn3cc([N+](=O)[O-])nc3c2=O)cc1 [17n, 7-(4-Methylphenethyl)-2-nitroimidazo[1,2-a]pyrazin-8(7H)-one] | 4 (≈ 13.4 µM) | >32 | > 32 | > 80 | > 79.4 | < 5 | < 5 | > 64 | – | – | – | antibacterial MIC C. difficile [9]: >64 µg/mL; IC50 [10, 19]: > 50 µM; IC50 [10, 20]: > 50.1 µM; IC50 (G. lamblia (WB line); [21]): 1.6 to 3.2 µM |
| O=c1c2nccn2ccn1Cc1ccccc1 [20b, 7-Benzylimidazo[1,2-a]pyrazin-8(7H)-one] | > 32 | – | > 32 | > 80 | > 79.4 | – | – | > 64 | > 100 | > 100 | > 32 | IC50 [11, 22]: > 40 µM; IC50 [11, 23]: > 39.8 µM; IC50 [10, 19]: > 25 µM; IC50 [10, 20]: > 25.1 µM; IC50 (G. lamblia (WB line); [21]): > 25 µM; IC50 (G. lamblia (WB line); [24]): > 25.1 µM; MIC (M. tuberculosis (H37Rv) [2]): > 32 µg/mL |
| O=c1c2nccn2ccn1Cc1ccc(F)cc1 [20c, 7-(4-Fluorobenzyl)imidazo[1,2-a]pyrazin-8(7H)-one] | > 32 | – | > 32 | > 80 | > 79.4 | – | – | > 64 | > 100 | > 100 | > 32 | IC50 [11, 22]: > 40 µM; IC50 [11, 23]: > 39.8 µM; IC50 [10, 19]: > 50 µM; IC50 [10, 20]: > 50.1 µM; IC50 (G. lamblia (WB line); [21]): > 50 µM; IC50 (G. lamblia (WB line); [24]): > 50.1 µM; MIC (M. tuberculosis (H37Rv) [2]): > 32 µg/mL |
| CC(=O)OCCn1c(C)cn2cc([N+](=O)[O-])nc2c1=O [25b, 2-(6-Methyl-2-nitro-8-oxoimidazo[1,2-a]pyrazin-7(8H)-yl)ethyl Acetate] | – | >32 | > 32 | > 80 | > 79.4 | > 200 | > 200 | > 64 | > 100 | > 100 | > 32 | IC50 [11, 22]: < 1 µM; antibacterial MIC C. difficile [9]: >64 µg/mL; antifungal MIC [14]: >32 µg/mL |
| Cc1cn2cc([N+](=O)[O-])nc2c(=O)n1Cc1ccc(OC(F)(F)F)cc1 [25f, 6-Methyl-2-nitro-7-(4-(trifluoromethoxy)benzyl)imidazo[1,2-a]pyrazin-8(7H)-one] | – | >32 | > 32 | > 80 | > 79.4 | < 5 | < 5 | > 64 | > 100 | > 100 | > 32 | antibacterial MIC C. difficile [9]: >64 µg/mL; antifungal MIC [14]: >32 µg/mL; fraction unbound at 0.5 h, 5 µM [8]: 0.02 |
| Cc1cn2cc([N+](=O)[O-])nc2c(OCc2ccc(OC(F)(F)F)cc2)n1 [25g, 6-Methyl-2-nitro-8-((4-(trifluoromethoxy)benzyl)oxy)imidazo[1,2-a]pyrazine] | – | >32 | > 32 | > 80 | > 79.4 | < 5 | < 5 | > 64 | > 100 | > 100 | > 32 | antibacterial MIC C. difficile [9]: >64 µg/mL; antifungal MIC [14]: >32 µg/mL; fraction unbound at 30 min, 5 μM ([8]; read-out: PPB (%)): < 0.01 |
| O=[N+]([O-])c1cn2c(n1)OC[C@H](OCc1ccc(OC(F)(F)F)cc1)C2 [(R)-PA-824 (8), (R)-PA-824] | – | – | – | – | – | – | – | – | – | – | – | activity against M. tuberculosis (M. tuberculosis): inactive |
| FC(F)(F)Oc1ccc(CO[C@@H]2COc3nccn3C2)cc1 [compound 9, S-des-nitro-PA-824] | – | – | – | – | – | – | – | – | – | – | – | MIC M. tuberculosis aerobic growth (M. tuberculosis; aerobic growth): > 160 µM; MIC M. tuberculosis anaerobic growth (M. tuberculosis; anaerobic growth): > 500 µM |
| CC(Cc1ccc(O)cc1)NCC(O)c1cc(O)cc(O)c1 (stereo not drawn) [fenoterol] | – | – | – | – | – | – | – | – | – | – | – | Papp A→B at 2 h, 2 µM (in vitro; Caco-2, pH 7.4): 0.27 ×10⁻⁶ cm/s; recovery at 2 h, 2 µM (in vitro; Caco-2, pH 7.4, mean recovery (%) A to B): 92% |
